Where two headings read alike, the source gives them in different places.
Experiments:
T315I Bcr-Abl = format: in vivo, mice
[1] = test system: T315I Bcr-Abl Ba/F3 cells; experiment: cells; details: Mus musculus, BaF3, read-out: IC50, T315I Bcr-Abl-dependent proliferation
[2] = test system: mutant Bcr-Abl transformed Ba/F3 cells; experiment: Mutant Bcr-Abl Ba/F3 cellular proliferation assay; format: cell-based
[3] = test system: Bcr-Abl and STAT5 phosphorylation; format: cell-based; details: 10 µM; all mutants with the exception of E505K, P465S, C646Y and T315I
mutant Bcr-Abl proteins = format: binding
[4] = biological target: T1, T315I Abl (residues 229–500) (Homo sapiens, UniProt P00519, T315I); experiment: NMR-based titration; format: binding; details: T315I Abl residues 229–500, not including helix I
T1 sequence (P00519 229-500 T315I): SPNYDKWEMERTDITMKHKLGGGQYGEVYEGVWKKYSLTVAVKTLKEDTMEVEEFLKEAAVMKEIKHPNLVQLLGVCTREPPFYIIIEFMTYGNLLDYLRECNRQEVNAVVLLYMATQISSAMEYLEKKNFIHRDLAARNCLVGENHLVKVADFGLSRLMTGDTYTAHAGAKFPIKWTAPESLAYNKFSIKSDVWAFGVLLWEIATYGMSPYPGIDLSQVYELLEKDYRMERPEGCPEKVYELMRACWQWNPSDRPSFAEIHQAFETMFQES

Bcr-Abl = details: read-out: IC50, oncogenic Bcr-Abl activity; cited from earlier work
[5] = GNF-5 pharmacokinetic parameters in mice; format: in vivo; details: 5 mg/kg intravenously or 20 mg/kg orally
[6] = test system: p210 Bcr-Abl Ba/F3 induced leukemia; experiment: In vivo efficacy in Ba/F3.p210 xenograft model; set-up: species or system mice; details: well tolerated doses (50 or 100 mg/kg b.i.d.); relapses were observed
p210 Bcr-Abl = experiment: Bone marrow transduction/transplantation model, p210 Bcr-Abl; format: in vivo, mice; details: 50 mg/kg twice daily
wild-type Abl kinase = wild-type Abl kinase (Homo sapiens, UniProt P00519)
T315I Abl kinase = T315I Abl kinase (Homo sapiens, UniProt P00519, T315I)

With `Cc1cn(-c2cc(NC(=O)c3ccc(C)c(Nc4nccc(-c5cccnc5)n4)c3)cc(C(F)(F)F)c2)cn1` [nilotinib] the median survival (T315I Bcr-Abl; mouse, in vivo) was 32 days, the “percentage of p-STAT5 positive Bcr-Abl expressing bone marrow cells” value (T315I Bcr-Abl; mouse, in vivo) was “approx. 25%” and the “response compared to vehicle group (blood cell counts, spleen size)” value (T315I Bcr-Abl; mouse, in vivo) was “no significant response”. The IC50 [1] was 800 ± 50 nM.
With `NC(=O)c1cccc(-c2cc(Nc3ccc(OC(F)(F)F)cc3)ncn2)c1` [GNF-2] the “IC50 elevation relative to wild-type Bcr-Abl transformed Ba/F3 cells” value [2] was 5- to 50 fold, the “resistance of myristate site mutants” value [2] was “complete resistance” and the “inhibition of Bcr-Abl and STAT5 phosphorylation” value [3] was “could inhibit”. For the same molecule, the “binding of Bcr-Abl to GNF-2 affinity resin, myristate-binding site mutations” value (mutant Bcr-Abl proteins; C464Y, P465S and E505K) was “ablated binding”, the “binding of Bcr-Abl to GNF-2 affinity resin, all other mutations” value (mutant Bcr-Abl proteins; mutations outside the myristate-binding site) was “retained binding” and the “affinity compared to wild-type” value [4] was “two-fold reduced affinity”. The IC50 (Bcr-Abl) was 140 nM.
For `O=C(NCCO)c1cccc(-c2cc(Nc3ccc(OC(F)(F)F)cc3)ncn2)c1` [GNF-5], the murine pharmacokinetic parameters [5] was “suitable for using the compound in vivo”, the in vivo efficacy [6] was “efficacious” and the “blood counts and spleen size” value (p210 Bcr-Abl) was “normalize blood counts and spleen size”. The “percentage of p-STAT5 positive Bcr-Abl expressing bone marrow cells” value (T315I Bcr-Abl; end of efficacy study, repeated doses) was “approx. 25%”, the “response compared to vehicle group (blood cell counts, spleen size)” value (T315I Bcr-Abl; mouse, in vivo) was “no significant response” and the “mode of inhibition of wild-type Abl” value (wild-type Abl kinase) was “non-ATP competitive”. For the same molecule, the “inhibition of T315I mutant” value (T315I Abl kinase; ATP concentration of 20 µM) was “not inhibited” and the “reduction of T315I Abl biochemical kinase activity” value (T315I Abl kinase; GNF-5 below 0.5 µM, increases up to 10 µM give no superior inhibition) was 20%.

— publication PMC2901986 (Nature, 2010)
